The values that follow are results of earlier work, collected in PubChem BioAssay AID1259409 (Chemical Carcinogenesis Research Information System (CCRIS), 2018).

This series has as its system rodent chemically induced tumor inhibition, incidence and multiplicity. The experiment in a line: CCRIS tumor inhibitor studies. The following applies: Carcinogen: 7,12-DIMETHYLBENZ[A]ANTHRACENE; 57-97-6; Dose [Inhibitor]: 0.1; 2 PPM (SELENIUM) IN DIET FOR 3 WK BEGINNING 2 WK PRIOR TO CARCINOGEN DOSE (STUDY DURATION: 25 WK); Route [Inhibitor]: ORAL; Species: RAT; Strain/Sex: SPRAGUE-DAWLEY/FEMALE; Target Tissue: Type of Lesion: MAMMARY GLAND: TUMOR; Dose [Carcinogen]: 10 MG ONCE; Promoter: NONE USED.

Take `CCC[Se]C#N`: the “tumour outcome (control, treated, inhibition, significance)” value is 25/30 (83%), 13/30 (43%), 48%, p<0.05.
